Measurements: patent US5399697A, “N,N',N'-trisubstituted-5-bisaminomethylene-1,3-dioxane-4,6-dione inhibitors of acyl-CoA:cholesterol-acyl transferase” (American Home Products Corporation, priority 1993, dated 1995)

What was measured:
[1] = tested on: acyl-coenzyme A: cholesterol acyltransferase; experiment: Inhibition of ACAT / intracellular cholesterol esterification in vitro (procedure of Ross et al.); assay type: cell-based; details: for % Inhibition: 25 μM
[2] = tested on: lipoperoxide; experiment: Antioxidant properties, lipoperoxide study of Yagi; assay type: biochemical; details: result in words
From the text: (§1) The use of antioxidants in the treatment of atherosclerosis is also known to be of therapeutic value.

[3] = tested on: low density lipoprotein oxidation; experiment: Antioxidant properties, low density lipoprotein oxidation studies (Parthasarathy et al.); assay type: biochemical; details: result in words
From the text: as §1

CCCCCCCN(Cc1ccc(CC(C)(C)C)cc1)C(Nc1cc(C(C)(C)C)c(O)c(C(C)(C)C)c1)=C1C(=O)OC(C)(C)OC1=O [Compound 76, 5-[[[3,5-Bis(1,1-dimethylethyl)-4,1-hydrophenyl]amino][[[4-(2,2-dimethylpropyl)phenyl]methyl]heptylamino]methylene]-2,2-dimethyl-1,3-dioxane-4,6-dione]
% Inhibition [1]: 96% | IC50 ([1]; read-out: IC50): 60 nM | antioxidant properties in the lipoperoxide study [2]: demonstrated antioxidant properties | antioxidant properties in low density lipoprotein oxidation studies [3]: demonstrated antioxidant properties

CCCCCCN(Cc1ccc(CC(C)C)cc1)C(Nc1cc(C(C)(C)C)c(O)c(C(C)(C)C)c1)=C1C(=O)OC(C)(C)OC1=O [Compound 77]
% Inhibition [1]: 95% | antioxidant properties in the lipoperoxide study [2]: demonstrated antioxidant properties | antioxidant properties in low density lipoprotein oxidation studies [3]: demonstrated antioxidant properties

CCCCCCN(Cc1ccc(CC(C)(C)C)cc1)C(Nc1cc(C(C)(C)C)c(O)c(C(C)(C)C)c1)=C1C(=O)OC(C)(C)OC1=O [Compound 79, 5-[[[3,5-Bis(1,1-dimethylethyl)-4-hydroxyphenyl]amino][[[4-(2,2-dimethylpropyl)phenyl]methyl]hexylamino]methylene]-2,2-dimethyl-1,3-dioxane-4,6-dione]
antioxidant properties in the lipoperoxide study [2]: demonstrated antioxidant properties | antioxidant properties in low density lipoprotein oxidation studies [3]: demonstrated antioxidant properties
